Test results: PMC11901676, “Substrate Selectivities of GH78 α-L-Rhamnosidases from Human Gut Bacteria on Dietary Flavonoid Glycosides” (Molecules, 2025)

B1: BtRha78A (Bacteroides thetaiotaomicron VPI-5482) (protein)
chain: MILLGALSLASSTFAQTWIWYPGDYEIWLGNQMNNRRTERGAFFPPFWKTDSHYVVVEFSKVLNLSEPEEVFIAAEGTYNVKLDGKLQFGMPETLLLPAGKHSLNIKVWNQATPPTIYVKGKTVNSDSSWRVTYEDKEWIDESGKASDTSATIYMDAGCWNFDGATQRPSQFSLMREPQQPVAKTEQPEGGILYDFGKETFGFITLKNLSGKGKIDLYYGESPEEAKDKAYCETLDKLLLEPGQITDLAIRSTSPLHHSDNEYTLENSKAFRYVYITHEPEVQIGEVSMQYEYLPEEYRGNFRCNDEELNCIWEVGAYTMHLTTREFFIDGIKRDRWVWSGDAIQSYLMNYYLFFDSESVKRTIWLLRGKDPVTSHSNTIMDYTFYWFLSVYDYYMYSGDRHFVNQLYPRMQTMMDYVLGRTNKNGMVEGMSGDWVFVDWADGYLDKKGELSFEQVLFCRSLETMALCADLVGDKDGQQKYEKLASALKAKLEPTFWNNQKQAFVHNCVDGRQSDAVTRYANMFSVFFDYLNADKQQAIKQSVLLNDEILKITTPYMRFYELEALCALGEQETVMKEMKAYWGGMLKAGATSFWEKYNPEESGTQHLAMYGRPYGKSLCHAWGASPIYLLGKYYLGVKPTKEGYKEFAVSPVLGGLKWMEGTVPTPNGDIHVYMDNKTIKVKATEGKGYLTIQSRRQPKANMGTVEKVSEGVWRLWIDSPEERIVTYRL
notes: recombinant in E. coli BL21(DE3), Ni-NTA purified

Experiments:
Assay in all cases: HPLC initial rates, Michaelis-Menten fit
HFM-Rha78 = tested on: T1, HFM-Rha78; assay type: biochemical, metagenome: human feces; details: 50 mM sodium phosphate pH 6.5, 37 °C, 5 min
T1 construct: recombinant in E. coli BL21(DE3), Ni-NTA purified
From the text: HPLC initial rates, Michaelis-Menten fit on HFM-Rha78

HFM-RhaA = tested on: T2, HFM-RhaA; assay type: biochemical, metagenome: human feces; details: 50 mM sodium phosphate pH 6.0, 37 °C, 5 min
T2 construct: recombinant in E. coli BL21(DE3), Ni-NTA purified; catalytic residues Glu448 (acid) and Glu715 (base); AlphaFold2 model said to be in UniProt
From the text: HPLC initial rates, Michaelis-Menten fit on HFM-RhaA

HFM-RhaC = tested on: T3, HFM-RhaC; assay type: biochemical, metagenome: human feces; details: 50 mM sodium phosphate pH 6.0, 37 °C, 5 min
T3 construct: recombinant in E. coli BL21(DE3), Ni-NTA purified
From the text: HPLC initial rates, Michaelis-Menten fit on HFM-RhaC

[1] = substrate: COc1ccc([C@@H]2CC(=O)c3c(O)cc(O[C@@H]4O[C@H](CO[C@@H]5O[C@@H](C)[C@H](O)[C@@H](O)[C@H]5O)[C@@H](O)[C@H](O)[C@H]4O)cc3O2)cc1O; assay type: biochemical, Bacteroides thetaiotaomicron; details: 50 mM sodium phosphate pH 6.5, 37 °C, 5 min
From the text: (§1) HPLC initial rates, Michaelis-Menten fit on BtRha78A

[2] = substrate: C[C@@H]1O[C@@H](OC[C@H]2O[C@@H](Oc3c(-c4ccc(O)c(O)c4)oc4cc(O)cc(O)c4c3=O)[C@H](O)[C@@H](O)[C@@H]2O)[C@H](O)[C@H](O)[C@H]1O; assay type: biochemical, Bacteroides thetaiotaomicron; details: 50 mM sodium phosphate pH 6.5, 37 °C, 5 min
From the text: as §1

Molecule	Km (HFM-Rha78) [µM]	Km (HFM-RhaA) [µM]	Km (HFM-RhaC) [µM]	also measured
COc1ccc([C@@H]2CC(=O)c3c(O)cc(O[C@@H]4O[C@H](CO)[C@@H](O)[C@H](O)[C@H]4O[C@@H]4O[C@@H](C)[C@H](O)[C@@H](O)[C@H]4O)cc3O2)cc1O [Neohesperidin]	3970	530	3250	
COc1ccc([C@@H]2CC(=O)c3c(O)cc(O[C@@H]4O[C@H](CO[C@@H]5O[C@@H](C)[C@H](O)[C@@H](O)[C@H]5O)[C@@H](O)[C@H](O)[C@H]4O)cc3O2)cc1O [Hesperidin]			2160	
C[C@@H]1O[C@@H](O[C@H]2[C@H](Oc3cc(O)c4c(c3)O[C@H](c3ccc(O)cc3)CC4=O)O[C@H](CO)[C@@H](O)[C@@H]2O)[C@H](O)[C@H](O)[C@H]1O [Naringin]	5970	1920	2290	
C[C@@H]1O[C@@H](OC[C@H]2O[C@@H](Oc3c(-c4ccc(O)c(O)c4)oc4cc(O)cc(O)c4c3=O)[C@H](O)[C@@H](O)[C@@H]2O)[C@H](O)[C@H](O)[C@H]1O [Rutin]		1240	5050	
B1				Km [1]: 2780 µM; kcat [1]: 8.73 s⁻¹; kcat/Km [1]: 3140 M⁻¹ s⁻¹; Km [2]: 2380 µM; kcat [2]: 0.47 s⁻¹; kcat/Km [2]: 200 M⁻¹ s⁻¹
